# Key:
# [1] = tested on: Cenchrus echinatus (CCHEC); assay: Field trial of triple mixes of amicarbazone, pre and post-emergence weed control; assay type: in vivo
# Procedure: (§1) Field trials were done to evaluate the efficacy and synergism of the triple mixes of amicarbazone with other herbicides for the control of weeds in pre and post-emergence application.
# (§2) The composition of the present invention was applied. This test was performed for species of weeds: Grasses namely BRADC=Brachiaria decumbens, CCHEC=Cenchrus echinatus, ELEIN=Eleusine indica, TRCIN=Digitaria insularis and Broadleaves namely IAQGR=Ipomoea grandifolia, EPHHL=Euphorbia heterophylla, COMBE=Commelina benghalensis. Data were collected at various period after application of the composition to the soil and calculated.
# [2] = tested on: Brachiaria decumbens (BRADC); assay: as above; assay type: in vivo
# Procedure: as §1, §2
# [3] = tested on: Ipomoea grandifolia (IAQGR); assay: Field trial of triple mixes of amicarbazone, pre-emergence weed control; assay type: in vivo
# Procedure: as §1, §2
# Eleusine indica = assay: Field trial of triple mixes of amicarbazone, pre and post-emergence weed control; assay type: in vivo; details: Table 8, dose g ai/ha: Amicarbazone 250, Sulfentrazone 150, Diuron 250, mix 250 + 150 + 250
# Procedure: as §1, §2
# Euphorbia heterophylla = assay: Field trial of triple mixes of amicarbazone, pre-emergence weed control; assay type: in vivo; details: dose g ai/ha: Amicarbazone 250, Sulfentrazone 150, Diuron 250, mix 250 + 150 + 250
# Procedure: as §1, §2
# Digitaria insularis = assay: Field trial of triple mixes of amicarbazone, post-emergence weed control; assay type: in vivo; details: dose g ai/ha: Amicarbazone 75, S-metolachlor 300, Atrazine 250, mix 75 + 300 + 250
# Procedure: as §1, §2
# yellow nutsedge = assay: Field trial, post emergence, efficacy on yellow nutsedge (Blacksburg, VA); assay type: in vivo, Cyperus esculentus; details: 2-way mixes 0.5X, 3-way mix 0.33X; for Yellow nut sedge at 29 DAT (Percentage weed cover): dosage: singles 1X; for Yellow nut sedge at 29 DAT (Percentage Control): post emergence, dosage: singles 1 X
# Procedure: A field trial was conducted to evaluate effectiveness of the combinations of three active ingredients according to the invention when used post emergence, at different rates, compared to industry standards—stand alone and 2 way mixture molecules for efficacy of yellow nutsedge. The active ingredient combination used in the trial was bentazon+halosulfuron+sulfentrazone. The trial was conducted in Blacksburg, VA and was initiated on June 6 under given protocol. The plots were in fallow area primarily covered with yellow nutsedge and tall fescue and were sprayed at 4 week intervals. (2 applications total). The application dosages of the herbicides, when used in isolation and when used in the combinations were as follows: […]
# [4] = Table 2, Post-Emergence, 7 DAA, dose g ai/ha: Amicarbazone 75, Isoxaflutole 15, Atrazine 250, mix 75 + 15 + 250
# [5] = Table 2, Post-Emergence, 28 DAA, dose g ai/ha: Amicarbazone 75, Isoxaflutole 15, Atrazine 250, mix 75 + 15 + 250
# [6] = Table 2, Post-Emergence, 35 DAA, dose g ai/ha: Amicarbazone 75, Isoxaflutole 15, Atrazine 250, mix 75 + 15 + 250
# [7] = Table 1, Post-Emergence, 7 DAA, dose g ai/ha: Amicarbazone 75, Isoxaflutole 15, Atrazine 250, mix 75 + 15 + 250
# [8] = Table 1, Post-Emergence, 21 DAA, dose g ai/ha: Amicarbazone 75, Isoxaflutole 15, Atrazine 250, mix 75 + 15 + 250
# [9] = Table 1, Post-Emergence, 28 DAA, dose g ai/ha: Amicarbazone 75, Isoxaflutole 15, Atrazine 250, mix 75 + 15 + 250
# [10] = Table 1, Pre-Emergence, 7 DAA, dose g ai/ha: Amicarbazone 75, Isoxaflutole 15, Atrazine 250, mix 75 + 15 + 250
# [11] = Table 1, Pre-Emergence, 21 DAA, dose g ai/ha: Amicarbazone 75, Isoxaflutole 15, Atrazine 250, mix 75 + 15 + 250
# [12] = Table 1, Pre-Emergence, 28 DAA, dose g ai/ha: Amicarbazone 75, Isoxaflutole 15, Atrazine 250, mix 75 + 15 + 250
# [13] = Table 3, 14 DAA, dose g ai/ha: Amicarbazone 75, Isoxaflutole 15, Atrazine 250, mix 75 + 15 + 250
# [14] = Table 3, 21 DAA, dose g ai/ha: Amicarbazone 75, Isoxaflutole 15, Atrazine 250, mix 75 + 15 + 250
# [15] = Table 3, 28 DAA, dose g ai/ha: Amicarbazone 75, Isoxaflutole 15, Atrazine 250, mix 75 + 15 + 250
# [16] = Table 6, Post-Emergence, 21 DAA, dose g ai/ha: Amicarbazone 250, Sulfentrazone 150, Diuron 250, mix 250 + 150 + 250
# [17] = Table 6, Post-Emergence, 28 DAA, dose g ai/ha: Amicarbazone 250, Sulfentrazone 150, Diuron 250, mix 250 + 150 + 250
# [18] = Table 6, Post-Emergence, 35 DAA, dose g ai/ha: Amicarbazone 250, Sulfentrazone 150, Diuron 250, mix 250 + 150 + 250
# [19] = Table 6, Pre-Emergence, 21 DAA, dose g ai/ha: Amicarbazone 250, Sulfentrazone 150, Diuron 250, mix 250 + 150 + 250
# [20] = Table 6, Pre-Emergence, 28 DAA, dose g ai/ha: Amicarbazone 250, Sulfentrazone 150, Diuron 250, mix 250 + 150 + 250
# [21] = Table 6, Pre-Emergence, 35 DAA, dose g ai/ha: Amicarbazone 250, Sulfentrazone 150, Diuron 250, mix 250 + 150 + 250
# [22] = Table 5, Post-Emergence, 21 DAA, dose g ai/ha: Amicarbazone 250, Clomazone 250, Diuron 250, mix 250 + 250 + 250
# [23] = Table 5, Post-Emergence, 28 DAA, dose g ai/ha: Amicarbazone 250, Clomazone 250, Diuron 250, mix 250 + 250 + 250
# [24] = Table 5, Post-Emergence, 35 DAA, dose g ai/ha: Amicarbazone 250, Clomazone 250, Diuron 250, mix 250 + 250 + 250
# [25] = Table 5, Pre-Emergence, 21 DAA, dose g ai/ha: Amicarbazone 250, Clomazone 250, Diuron 250, mix 250 + 250 + 250
# [26] = Table 5, Pre-Emergence, 28 DAA, dose g ai/ha: Amicarbazone 250, Clomazone 250, Diuron 250, mix 250 + 250 + 250
# [27] = Table 5, Pre-Emergence, 35 DAA, dose g ai/ha: Amicarbazone 250, Clomazone 250, Diuron 250, mix 250 + 250 + 250
# [28] = Table 4, 7 DAA, dose g ai/ha: Amicarbazone 250, Clomazone 250, Diuron 250, mix 250 + 250 + 250
# [29] = Table 4, 14 DAA, dose g ai/ha: Amicarbazone 250, Clomazone 250, Diuron 250, mix 250 + 250 + 250
# [30] = Table 4, 28 DAA, dose g ai/ha: Amicarbazone 250, Clomazone 250, Diuron 250, mix 250 + 250 + 250
compound,measurement,setting,value
CS(=O)(=O)c1cc(C(F)(F)F)ccc1C(=O)c1cnoc1C1CC1 [Isoxaflutole],% Control,[1]; [4],68.8%
same,% Control,[1]; [5],91.3%
same,% Control,[1]; [6],93.3%
same,% Control,[2]; [7],66.3%
same,% Control,[2]; [8],65.0%
same,% Control,[2]; [9],68.8%
same,% Control,[2]; [10],86.3%
same,% Control,[2]; [11],53.8%
same,% Control,[2]; [12],50.0%
same,% Control,[3]; [13],15.0%
same,% Control,[3]; [14],0.0%
same,% Control,[3]; [15],0.0%
CN(C)C(=O)Nc1ccc(Cl)c(Cl)c1 [Diuron],% Control,[1]; [16],38.8%
same,% Control,[1]; [17],35.0%
same,% Control,[1]; [18],28.8%
same,% Control,[1]; [19],0.0%
same,% Control,[1]; [20],0.0%
same,% Control,[1]; [21],0.0%
same,% Control,"Eleusine indica; Post-Emergence, 14 DAA",53.8%
same,% Control,"Eleusine indica; Post-Emergence, 21 DAA",35.0%
same,% Control,"Eleusine indica; Post-Emergence, 28 DAA",30.0%
same,% Control,"Eleusine indica; Pre-Emergence, 14 DAA",0.0%
same,% Control,"Eleusine indica; Pre-Emergence, 21 DAA",0.0%
same,% Control,"Eleusine indica; Pre-Emergence, 28 DAA",0.0%
same,% Control,[2]; [22],81.3%
same,% Control,[2]; [23],75.0%
same,% Control,[2]; [24],76.3%
same,% Control,[2]; [25],0.0%
same,% Control,[2]; [26],0.0%
same,% Control,[2]; [27],0.0%
same,% Control,[3]; [28],10.0%
same,% Control,[3]; [29],0.0%
same,% Control,[3]; [30],0.0%
same,% Control,"Euphorbia heterophylla; Table 7, 7 DAA",0.0%
same,% Control,"Euphorbia heterophylla; Table 7, 14 DAA",0.0%
same,% Control,"Euphorbia heterophylla; Table 7, 21 DAA",0.0%
CC1(C)CON(Cc2ccccc2Cl)C1=O [Clomazone],% Control,[2]; [22],71.3%
same,% Control,[2]; [23],63.8%
same,% Control,[2]; [24],61.3%
same,% Control,[2]; [25],89.5%
same,% Control,[2]; [26],86.5%
same,% Control,[2]; [27],86.3%
same,% Control,[3]; [28],57.5%
same,% Control,[3]; [29],41.3%
same,% Control,[3]; [30],39.5%
CCc1cccc(C)c1N(C(=O)CCl)[C@@H](C)COC [S-metolachlor],% Control,"Digitaria insularis; Table 9, 21 DAA",0.0%
same,% Control,"Digitaria insularis; Table 9, 28 DAA",0.0%
same,% Control,"Digitaria insularis; Table 9, 35 DAA",0.0%
Cc1nn(-c2cc(NS(C)(=O)=O)c(Cl)cc2Cl)c(=O)n1C(F)F [Sulfentrazone],Yellow nut sedge at 29 DAT (Percentage weed cover),"yellow nutsedge; 05/07, untreated 59",9%
same,Yellow nut sedge at 29 DAT (Percentage Control),yellow nutsedge; 05/07,75%
same,Yellow nut sedge at 29 DAT (Percentage weed cover),"yellow nutsedge; 13/06, untreated 50",44%
same,Yellow nut sedge at 29 DAT (Percentage Control),yellow nutsedge; 13/06,58%
same,Yellow nut sedge at 29 DAT (Percentage weed cover),"yellow nutsedge; 20/6, untreated 49",11%
same,Yellow nut sedge at 29 DAT (Percentage Control),yellow nutsedge; 20/6,73%
same,% Control,[1]; [16],86.3%
same,% Control,[1]; [17],83.8%
same,% Control,[1]; [18],82.5%
same,% Control,[1]; [19],17.5%
same,% Control,[1]; [20],13.8%
same,% Control,[1]; [21],9.5%
same,% Control,"Eleusine indica; Post-Emergence, 14 DAA",70.0%
same,% Control,"Eleusine indica; Post-Emergence, 21 DAA",63.8%
same,% Control,"Eleusine indica; Post-Emergence, 28 DAA",55.0%
same,% Control,"Eleusine indica; Pre-Emergence, 14 DAA",93.3%
same,% Control,"Eleusine indica; Pre-Emergence, 21 DAA",96.5%
same,% Control,"Eleusine indica; Pre-Emergence, 28 DAA",92.0%
same,% Control,"Euphorbia heterophylla; Table 7, 7 DAA",0.0%
same,% Control,"Euphorbia heterophylla; Table 7, 14 DAA",10.0%
same,% Control,"Euphorbia heterophylla; Table 7, 21 DAA",17.5%
CC(C)N1C(=O)c2ccccc2NS1(=O)=O [Bentazone],Yellow nut sedge at 29 DAT (Percentage weed cover),"yellow nutsedge; 05/07, untreated 59",10%
same,Yellow nut sedge at 29 DAT (Percentage Control),yellow nutsedge; 05/07,76%
same,Yellow nut sedge at 29 DAT (Percentage weed cover),"yellow nutsedge; 13/06, untreated 50",40%
same,Yellow nut sedge at 29 DAT (Percentage Control),yellow nutsedge; 13/06,65%
same,Yellow nut sedge at 29 DAT (Percentage weed cover),"yellow nutsedge; 20/6, untreated 49",8%
same,Yellow nut sedge at 29 DAT (Percentage Control),yellow nutsedge; 20/6,75%
CCNc1nc(Cl)nc(NC(C)C)n1 [Atrazine],% Control,[1]; [4],47.5%
same,% Control,[1]; [5],26.3%
same,% Control,[1]; [6],23.8%
same,% Control,[2]; [7],37.5%
same,% Control,[2]; [8],21.3%
same,% Control,[2]; [9],23.8%
same,% Control,[2]; [10],0.0%
same,% Control,[2]; [11],0.0%
same,% Control,[2]; [12],0.0%
same,% Control,"Digitaria insularis; Table 9, 21 DAA",21.3%
same,% Control,"Digitaria insularis; Table 9, 28 DAA",13.8%
same,% Control,"Digitaria insularis; Table 9, 35 DAA",7.5%
same,% Control,[3]; [13],0.0%
same,% Control,[3]; [14],0.0%
same,% Control,[3]; [15],0.0%
COc1cc(OC)nc(NC(=O)NS(=O)(=O)c2c(C(=O)O)c(Cl)nn2C)n1 [Halosulfuron],Yellow nut sedge at 29 DAT (Percentage weed cover),"yellow nutsedge; 05/07, untreated 59",8%
same,Yellow nut sedge at 29 DAT (Percentage Control),yellow nutsedge; 05/07,81%
same,Yellow nut sedge at 29 DAT (Percentage weed cover),"yellow nutsedge; 13/06, untreated 50",50%
same,Yellow nut sedge at 29 DAT (Percentage Control),yellow nutsedge; 13/06,36%
same,Yellow nut sedge at 29 DAT (Percentage weed cover),"yellow nutsedge; 20/6, untreated 49",16%
same,Yellow nut sedge at 29 DAT (Percentage Control),yellow nutsedge; 20/6,60%
